Reference: patent US6573269B1, “Pyrimidine-2,4,6-trione light screening compositions” (Roche Vitamins Inc., priority 1999, dated 2003)

Columns and labels:
Format in all cases: physicochemical
[1] = UV absorption (UV-A filter property); conditions: for UV extinction (ε) at absorption maximum: value in brackets after the UV maximum
Text: The compounds of formula I have adsorption maxima in the range of 320 nm to 400 nm, the so called UV-A radiation.

[2] = Measurement of solubility in cosmetic solvents Cétiol LC and Crodamol DA; conditions: oversaturated solution, overnight at 25° C., filtered, UV measurement in CH2Cl2
Experimental: e) Measurement of solubility in Cétiol LC (cocoyl caprylate caprate) and Crodamol DA (diisopropyl adipate).
After standing overnight at 25° C., the solution was filtered through a microfilter (Millipore, pore size 0.5 , μm), followed by UV measurement in CH2Cl2. The extinctions were compared with the extinctions of the pure compound.

[3] = Photostability: irradiation in high dilution with a Hg-lamp (150 W from Hereus); conditions: irradiated in high dilution with a Hg-lamp (150 W)
Experimental: A 100 ml three necked reaction flask equipped with a thermometer, a reflux condenser, and a magnetic stirrer under nitrogen atmosphere was charged with 1.1 g (5 mmol) of 4-(2-ethyl-hexyloxy)-phenylamine (Example 1b), 1.06 g (5 mmol) of 1,3-diisopropyl-pyrimidine-2,4,6-trione (Example 1c) and 11.1 g (75 mmol) of triethyl orthoformate in 10 ml of tetrahydrofuran. This mixture was refluxed for 18 hours followed by washing twice with water, dried with Na2SO4, and concentrated on a rotary evaporator. The raw product was recrystallized in ethanol to yield 0.84 g of yellowish crystals. M.p. 74-76° C., UV 355 nm (32,122).

Row | SMILES | UV absorption maximum [1] | UV extinction (ε) at absorption maximum [1] | solubility in Crodamol DA (diisopropyl adipate) [2] | solubility in Cétiol LC (cocoyl caprylate caprate) [2] | photostability [3]
1 | C=C(COc1ccc(NC=C2C(=O)N(C(C)C)C(=O)N(C(C)C)C2=O)cc1)[Si](C)(O[Si](C)(C)C)O[Si](C)(C)C [Example 3, 5-{[4-(2-(1,3,3,3-tetramethyl-1-[(trimethylsilyl)-oxy]-disiloxanyl)-prop-2-enyloxy)-phenylamine]-methylene}-1,3-diisopropyl-pyrimidine-2,4,6-trione] | 354 nm | 31,520 | unlimited | unlimited | excellent
2 | CCCCC(CC)COc1ccc(NC=C2C(=O)N(C(C)C)C(=O)N(C(C)C)C2=O)cc1 (stereo not shown) [Example 1, 5-{[4-(2-Ethyl-hexyloxy)-phenylamine]-methylene}-1,3-diisopropyl-pyrimidine-2,4,6-trione] | 355 nm | 32,122 | 26.9% | 15.5% | photostable
3 | CC(C)N1C(=O)C(=CNc2ccc(O)cc2)C(=O)N(C(C)C)C1=O [Example 6, 5-{(4-Hydroxy-phenylamine)-methylene}-1,3-diisopropyl-pyrimidine-2,4,6-trione] | 351 nm | 27,911 | 3.6% |  | photostable
4 | CC(C)N1C(=O)C(=CNc2ccc(O)cc2O)C(=O)N(C(C)C)C1=O [Example 7, 5-{(2,4-Dihydroxy-phenylamine)-methylene}-1,3-diisopropyl-pyrimidine-2,4,6-trione] | 363 nm | 23,564 | 4.1% |  | photostable
5 | C#CCOc1ccc(NC=C2C(=O)N(C(C)C)C(=O)N(C(C)C)C2=O)cc1 [Example 2, 5-{(4-Propargyloxy-phenylamine)-methylene}-1,3-diisopropyl-pyrimidine-2,4,6-trione] | 352 nm | 31,596 |  |  | photostable
6 | CCCCCCCC(=O)Oc1ccc(NC=C2C(=O)N(C(C)C)C(=O)N(C(C)C)C2=O)cc1 [Example 8, 5-{(4-Capryloxy-phenylamine)-methylene}-1,3-diisopropyl-pyrimidine-2,4,6-trione] | 346 nm | 33,768 | 18.5% | 6.6% | photostable
7 | CCCCCCCC(=O)Oc1ccc(NC=C2C(=O)N(C(C)C)C(=O)N(C(C)C)C2=O)c(OC(=O)CCCCCCC)c1 [Example 9 diester] | 351 nm | 31,349 |  | easily mixable with Cétiiol LC in any proportion | 
8 | CCCCCCCC(=O)Oc1ccc(NC=C2C(=O)N(C(C)C)C(=O)N(C(C)C)C2=O)c(O)c1 [5-{[(2-hydroxy-4-capryloxy)-phenylamine])-methylene}-1,3-diisopropyl-pyrimidine-2,4,6-trione] | 354 nm | 25,813 |  |  | 
